According to patent US20260217701A1, “SELECTIVE BET INHIBITORS AND USES THEREOF” (Tay Therapeutics Limited, priority 2022, published 2026):
pIC50: −log10 of the molar value.

Assays:
BRD4 BD1 = target: T1, BRD4 BD1 (Homo sapiens, UniProt O60885); test: NanoBRET bromodomain assay, NanoLuc-BRD4-BD1 in HEK293 cells; format: binding
T1 construct: HEK293 cells were transfected using NanoLuc-BRD4-BD1 or NanoLuc-BRD4-BD2 fusion vectors
Procedure: Exemplary compounds of the disclosure are active against BRD4 BD2 and selective over BRD4 BD1. BRD4 is a representative example of the BET family, as the binding sites of all BET family members are structurally similar. […] IC50s and fold selectivity's are determined as described below and are represented in Table 1.
(§1) Plates were then incubated at 37° C.+5% CO2 incubator for 2 hours.
(§2) Fold Selectivity Calculated (IC50 BD1/IC50 BD2).

BRD4 BD2 = target: T2, BRD4 BD2 (Homo sapiens, UniProt O60885); test: NanoBRET bromodomain assay, NanoLuc-BRD4-BD2 in HEK293 cells; format: binding; settings: for Fold Selectivity BRD4 BD1/BD2: IC50 BD1/IC50 BD2, qualitative if an IC50 is at the upper limit
T2 construct: HEK293 cells were transfected using NanoLuc-BRD4-BD1 or NanoLuc-BRD4-BD2 fusion vectors
Procedure: as §1, §2

SMILES | pIC50 (BRD4 BD1) | pIC50 (BRD4 BD2) | Fold Selectivity BRD4 BD1/BD2 (BRD4 BD2)
Cn1cc(-c2ccccc2)c(-c2cn(C)c(=O)c3[nH]c(-c4ccc(C5COC5)cc4)cc23)cc1=O [Example 44, 6-methyl-4-(1-methyl-2-oxo-5-phenyl-1,2-dihydropyridin-4-yl)-2-(4-(oxetan-3-yl)phenyl)-1,6-dihydro-7H-pyrrolo[2,3-c]pyridin-7-one] | < 6.00 | > 8.00 | xxxx (Fold >1000)
Cn1cc(-c2cccc(CS(C)(=O)=O)c2)c(-c2cn(C)c(=O)c3[nH]c(-c4cnn(C(F)(F)F)c4)cc23)cc1=O [Example 2, 6-methyl-4-(1-methyl-5-(3-((methylsulfonyl)methyl)phenyl)-2-oxo-1,2-dihydropyridin-4-yl)-2-(1-(trifluoromethyl)-1H-pyrazol-4-yl)-1,6-dihydro-7H-pyrrolo[2,3-c]pyridin-7-one] | < 6.00 | 6.70 to 7.30 | xx (Fold >50 and ≤200)
Cc1cccc(C)c1Oc1cn(C)c(=O)cc1-c1cn(C)c(=O)c2[nH]c(-c3cnc(C(C)C)s3)cc12 [Example 54, 4-(5-(2,6-dimethylphenoxy)-1-methyl-2-oxo-1,2-dihydropyridin-4-yl)-2-(2-isopropylthiazol-5-yl)-6-methyl-1,6-dihydro-7H-pyrrolo[2,3-c]pyridin-7-one] | < 6.00 | > 8.00 | xxxx (Fold >1000)
Cc1cc(-c2cc3c(-c4cc(=O)n(C)cc4-c4ccc(S(C)(=O)=O)cc4)cn(C)c(=O)c3[nH]2)cc(C)n1 [Example 86] | < 6.00 | 6.00 to 6.70 | x (Fold >2 and ≤50)
COCCOc1cccc(-c2cn(C)c(=O)cc2-c2cn(C)c(=O)c3[nH]c(-c4cnn(C(C)C)c4)cc23)c1 [Example 74] | < 6.00 | 7.30 to 8.00 | xx (Fold >50 and ≤200)
CCCn1cc(-c2cc3c(-c4cc(=O)n(C)cc4Oc4c(C)cccc4C)cn(C)c(=O)c3[nH]2)cn1 [Example 41, 4-(5-(2,6-dimethylphenoxy)-1-methyl-2-oxo-1,2-dihydropyridin-4-yl)-6-methyl-2-(1-propyl-1H-pyrazol-4-yl)-1,6-dihydro-7H-pyrrolo[2,3-c]pyridin-7-one] | < 6.00 | > 8.00 | xxxx (Fold >1000)
Cn1cc(-c2cc(=O)n(C3CC3)cc2-c2ccccc2)c2cc(-c3ccc(F)cc3F)[nH]c2c1=O [Example 49, 4-(1-cyclopropyl-2-oxo-5-phenyl-1,2-dihydropyridin-4-yl)-2-(2,4-difluorophenyl)-6-methyl-1,6-dihydro-7H-pyrrolo[2,3-c]pyridin-7-one] | < 6.00 | > 8.00 | xxxx (Fold >1000)
Cc1cccc(C)c1Oc1cn(C)c(=O)cc1-c1cn(C)c(=O)c2[nH]c(-c3cc(F)cc(F)c3F)cc12 [Example 55, 4-(5-(2,6-dimethylphenoxy)-1-methyl-2-oxo-1,2-dihydropyridin-4-yl)-6-methyl-2-(2,3,5-trifluorophenyl)-1,6-dihydro-7H-pyrrolo[2,3-c]pyridin-7-one] | < 6.00 | > 8.00 | xxxx (Fold >1000)
Cn1cc(-c2cccnc2)c(-c2cn(C)c(=O)c3[nH]c(-c4ccc(F)cc4F)cc23)cc1=O [Example 37, 2-(2,4-difluorophenyl)-6-methyl-4-(1-methyl-6-oxo-1,6-dihydro-[3,3′-bipyridin]-4-yl)-1,6-dihydro-7H-pyrrolo[2,3-c]pyridin-7-one] | < 6.00 | 7.30 to 8.00 | xxx (Fold >200 and ≤1000)
CC(C)n1cc(-c2cc3c(-c4cc(=O)n(C)cc4-c4cccc(OCCO)c4)cn(C)c(=O)c3[nH]2)cn1 [Example 75] | < 6.00 | 6.00 to 6.70 | x (Fold >2 and ≤50)
Cn1cc(-c2ccccc2)c(-c2cn(C)c(=O)c3[nH]c(-c4cccn(C)c4=O)cc23)cc1=O [Example 1, 6-methyl-2-(1-methyl-2-oxo-1,2-dihydropyridin-3-yl)-4-(1-methyl-2-oxo-5-phenyl-1,2-dihydropyridin-4-yl)-1,6-dihydro-7H-pyrrolo[2,3-c]pyridin-7-one] | < 6.00 | 7.30 to 8.00 | xxx (Fold >200 and ≤1000)
Cc1cccc(C)c1Oc1cn(C)c(=O)cc1-c1cn(C)c(=O)c2[nH]c(-c3cc(CO)ccc3F)cc12 [Example 92] | < 6.00 | 7.30 to 8.00 | xxx (Fold >200 and ≤1000)
Cn1cc(-c2ccccc2)c(-c2cn(C)c(=O)c3[nH]c(-c4cccc(S(C)(=O)=O)c4)cc23)cc1=O [Example 83] | 6.00 to 6.30 | > 8.00 | xx (Fold >50 and ≤200)
Cn1cc(-c2cccnc2)c(-c2cn(C)c(=O)c3[nH]c(-c4cnn(C(F)(F)F)c4)c(F)c23)cc1=O [Example 67, 3-fluoro-6-methyl-4-(1-methyl-6-oxo-1,6-dihydro-[3,3′-bipyridin]-4-yl)-2-(1-(trifluoromethyl)-1H-pyrazol-4-yl)-1,6-dihydro-7H-pyrrolo[2,3-c]pyridin-7-one] | < 6.00 | 7.30 to 8.00 | xxx (Fold >200 and ≤1000)
Cc1cc(-c2cc3c(-c4cc(=O)n(C)cc4-c4ccccc4C)cn(C)c(=O)c3[nH]2)cc(C)n1.Cl [Example 27, 2-(2,6-dimethylpyridin-4-yl)-6-methyl-4-(1-methyl-2-oxo-5-(o-tolyl)-1,2-dihydropyridin-4-yl)-1,6-dihydro-7H-pyrrolo[2,3-c]pyridin-7-one hydrochloride] | < 6.00 | 7.30 to 8.00 | xxx (Fold >200 and ≤1000)
Cn1cc(-c2ccccc2)c(-c2cn(C)c(=O)c3[nH]c(-c4cccc(F)c4F)cc23)cc1=O [Example 90] | < 6.00 | 7.30 to 8.00 | xxx (Fold >200 and ≤1000)
Cn1cc(-c2cccc(CN3CCNCC3)c2)c(-c2cn(C)c(=O)c3[nH]c(-c4ccc(F)cc4F)cc23)cc1=O [Example 73] | < 6.00 | 6.00 to 6.70 | x (Fold >2 and ≤50)
Cn1cc(-c2cc(=O)n(C3CC3)cc2-c2ccccc2)c2cc(-c3cccc(F)c3F)[nH]c2c1=O [Example 48, 4-(1-cyclopropyl-2-oxo-5-phenyl-1,2-dihydropyridin-4-yl)-2-(2,3-difluorophenyl)-6-methyl-1,6-dihydro-7H-pyrrolo[2,3-c]pyridin-7-one] | < 6.00 | > 8.00 | xxxx (Fold >1000)
Cc1cccc(-c2cc3c(-c4cc(=O)n(C)cc4Oc4c(C)cccc4C)cn(C)c(=O)c3[nH]2)c1F [Example 99] | < 6.00 | 7.30 to 8.00 | xxx (Fold >200 and ≤1000)
Cc1nn(C2COC2)cc1-c1cc2c(-c3cc(=O)n(C)cc3-c3ccccc3)cn(C)c(=O)c2[nH]1 [Example 91] | < 6.00 | 7.30 to 8.00 | xx (Fold >50 and ≤200)
Cn1cc(-c2ccc(COC(F)(F)F)cc2)c(-c2cn(C)c(=O)c3[nH]c(-c4cnn(C(F)(F)F)c4)cc23)cc1=O [Example 18, 6-methyl-4-(1-methyl-2-oxo-5-(4-((trifluoromethoxy)methyl)phenyl)-1,2-dihydropyridin-4-yl)-2-(1-(trifluoromethyl)-1H-pyrazol-4-yl)-1,6-dihydro-7H-pyrrolo[2,3-c]pyridin-7-one] | < 6.00 | > 8.00 | xxxx (Fold >1000)
Cn1cc(-c2cc(=O)n(C3CC3)cc2-c2ccccc2)c2cc(-c3ccccc3F)[nH]c2c1=O [Example 47, 4-(1-cyclopropyl-2-oxo-5-phenyl-1,2-dihydropyridin-4-yl)-2-(2-fluorophenyl)-6-methyl-1,6-dihydro-7H-pyrrolo[2,3-c]pyridin-7-one] | < 6.00 | > 8.00 | xxxx (Fold >1000)
Cn1cc(-c2ccccc2)c(-c2cn(C)c(=O)c3[nH]c(-c4ccccc4F)cc23)cc1=O [Example 42, 2-(2-fluorophenyl)-6-methyl-4-(1-methyl-2-oxo-5-phenyl-1,2-dihydropyridin-4-yl)-1,6-dihydro-7H-pyrrolo[2,3-c]pyridin-7-one] | < 6.00 | > 8.00 | xxxx (Fold >1000)
Cn1cc(-c2cccc(CN3CCNCC3)c2)c(-c2cn(C)c(=O)c3[nH]c(-c4cnn(C(F)(F)F)c4)cc23)cc1=O [Example 4, 6-methyl-4-(1-methyl-2-oxo-5-(3-(piperazin-1-ylmethyl)phenyl)-1,2-dihydropyridin-4-yl)-2-(1-(trifluoromethyl)-1H-pyrazol-4-yl)-1,6-dihydro-7H-pyrrolo[2,3-c]pyridin-7-one] | < 6.00 | < 6.00 | — (Fold ≥0 and ≤2)
Cn1cc(-c2cccnc2)c(-c2cn(C)c(=O)c3[nH]c(-c4cnn(C(F)(F)F)c4)cc23)cc1=O [Example 66, 6-methyl-4-(1-methyl-6-oxo-1,6-dihydro-[3,3′-bipyridin]-4-yl)-2-(1-(trifluoromethyl)-1H-pyrazol-4-yl)-1,6-dihydro-7H-pyrrolo[2,3-c]pyridin-7-one] | < 6.00 | 6.00 to 6.70 | x (Fold >2 and ≤50)
Cc1cccc(C)c1Oc1cn(C)c(=O)cc1-c1cn(C)c(=O)c2[nH]c(-c3ccc(CO)cc3F)cc12 [Example 58, 4-(5-(2,6-dimethylphenoxy)-1-methyl-2-oxo-1,2-dihydropyridin-4-yl)-2-(2-fluoro-4-(hydroxymethyl)phenyl)-6-methyl-1,6-dihydro-7H-pyrrolo[2,3-c]pyridin-7-one] | < 6.00 | > 8.00 | xxxx (Fold >1000)
